Experimental data taken from article PMC8343220, “The selectivity of α‐adrenoceptor agonists for the human α1A, α1B, and α1D‐adrenoceptors” (Pharmacology Research & Perspectives, 2021).

How the values were obtained:
[1] = target: T1, human α1D‐adrenoceptor (full length) (Homo sapiens, UniProt P25100); assay: ^3H‐prazosin whole‐cell radioligand binding, CHO‐α1D cells
T1 construct: human α1D‐adrenoceptor (full length) were used; expressed in transfected cells; host or cells: CHO-K1
T1 sequence (P25100 1-572): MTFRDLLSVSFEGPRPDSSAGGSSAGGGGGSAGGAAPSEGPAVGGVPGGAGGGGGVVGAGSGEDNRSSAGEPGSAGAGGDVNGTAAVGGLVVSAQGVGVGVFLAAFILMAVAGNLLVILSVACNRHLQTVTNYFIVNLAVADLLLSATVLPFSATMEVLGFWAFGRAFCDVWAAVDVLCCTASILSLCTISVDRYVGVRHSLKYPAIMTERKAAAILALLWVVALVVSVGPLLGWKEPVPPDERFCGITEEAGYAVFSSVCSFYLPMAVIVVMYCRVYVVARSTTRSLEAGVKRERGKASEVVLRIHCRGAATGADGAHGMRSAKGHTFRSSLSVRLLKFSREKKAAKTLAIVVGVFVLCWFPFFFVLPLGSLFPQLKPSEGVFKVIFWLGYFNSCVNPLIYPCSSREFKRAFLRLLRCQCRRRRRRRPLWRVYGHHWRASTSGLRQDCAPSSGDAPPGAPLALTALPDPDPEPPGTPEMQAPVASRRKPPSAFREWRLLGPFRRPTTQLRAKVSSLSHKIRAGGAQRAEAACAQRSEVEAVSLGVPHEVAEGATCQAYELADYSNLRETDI

human α1A‐adrenoceptor [2] = target: T2, human α1A‐adrenoceptor (Homo sapiens, UniProt P35348); details: CHO‐α1A cells; given as log KD (negative); ligands marked ^a; ref Proudman et al., 2020; cited from earlier work
T2 construct: expressed in transfected cells; host or cells: CHO-K1
T2 sequence (P35348 1-466): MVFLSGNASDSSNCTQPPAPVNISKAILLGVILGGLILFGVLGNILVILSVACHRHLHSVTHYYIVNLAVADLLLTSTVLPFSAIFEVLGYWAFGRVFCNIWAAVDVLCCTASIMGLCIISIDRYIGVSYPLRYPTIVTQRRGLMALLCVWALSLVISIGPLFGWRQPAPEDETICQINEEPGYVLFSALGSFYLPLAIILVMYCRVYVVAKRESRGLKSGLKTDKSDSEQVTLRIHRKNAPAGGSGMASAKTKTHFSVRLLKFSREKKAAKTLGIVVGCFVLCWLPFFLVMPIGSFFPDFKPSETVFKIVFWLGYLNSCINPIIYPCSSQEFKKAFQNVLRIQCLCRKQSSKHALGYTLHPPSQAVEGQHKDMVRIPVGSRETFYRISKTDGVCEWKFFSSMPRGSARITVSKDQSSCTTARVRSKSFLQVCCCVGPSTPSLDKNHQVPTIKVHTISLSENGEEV

[3] = system: parental CHO cell line without any transfected receptors; assay: ERK1/2‐phosphorylation, parent CHO cells without transfected receptors; assay type: cell-based, Chinese hamster
[4] = target: T1, human α1D‐adrenoceptor (full length); assay: ERK1/2‐phosphorylation (Surefire Alphascreen), CHO‐α1D cells; assay type: cell-based
human α1A‐adrenoceptor [5] = target: T2, human α1A‐adrenoceptor; assay: ^3H‐cAMP accumulation, CHO‐α1A cells; assay type: cell-based; details: CHO‐α1A cells
[6] = target: T1, human α1D‐adrenoceptor (full length); details: CHO‐α1D cells; ligands marked ^a; ref Proudman et al., 2020; cited from earlier work
human α1A‐adrenoceptor [7] = target: T2, human α1A‐adrenoceptor; assay: ^3H‐cAMP accumulation in the presence of 10 μM forskolin, CHO‐α1A cells; assay type: cell-based; details: CHO‐α1A cells
human α1A‐adrenoceptor [8] = target: T2, human α1A‐adrenoceptor; assay: ERK1/2‐phosphorylation (Surefire Alphascreen), CHO‐α1A cells; assay type: cell-based
human α1B‐adrenoceptor [9] = target: T3, human α1B‐adrenoceptor (Homo sapiens, UniProt P35368); assay: ERK1/2‐phosphorylation (Surefire Alphascreen), CHO‐α1B cells; assay type: cell-based
T3 construct: expressed in transfected cells; host or cells: CHO-K1
T3 sequence (P35368 1-520): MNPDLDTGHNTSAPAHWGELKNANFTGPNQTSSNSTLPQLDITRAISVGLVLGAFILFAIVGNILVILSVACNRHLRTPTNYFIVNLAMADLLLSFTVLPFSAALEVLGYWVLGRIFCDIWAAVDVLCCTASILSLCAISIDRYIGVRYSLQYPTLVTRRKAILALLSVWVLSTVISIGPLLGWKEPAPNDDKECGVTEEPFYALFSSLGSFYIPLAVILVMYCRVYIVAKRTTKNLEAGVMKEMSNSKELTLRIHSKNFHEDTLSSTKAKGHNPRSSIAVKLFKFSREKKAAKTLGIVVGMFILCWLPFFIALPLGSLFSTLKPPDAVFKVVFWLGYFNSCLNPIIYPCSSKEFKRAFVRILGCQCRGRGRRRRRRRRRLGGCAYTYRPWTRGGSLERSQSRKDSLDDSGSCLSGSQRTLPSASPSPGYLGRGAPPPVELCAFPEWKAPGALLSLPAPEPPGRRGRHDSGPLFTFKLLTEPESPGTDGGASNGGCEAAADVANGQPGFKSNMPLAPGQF

human α1B‐adrenoceptor [10] = target: T3, human α1B‐adrenoceptor; details: CHO‐α1B cells; given as log KD (negative); ligands marked ^a; ref Proudman et al., 2020; cited from earlier work
human α1A‐adrenoceptor [11] = target: T2, human α1A‐adrenoceptor; assay: Intracellular free calcium mobilization, CHO‐α1A cells; assay type: cell-based
[12] = system: parental CHO cell line without any transfected receptors; assay: Intracellular calcium mobilization, parent CHO cells without transfected receptors; assay type: cell-based, Chinese hamster
[13] = system: parental CHO cell line without any transfected receptors; assay: Forskolin‐stimulated cAMP accumulation, parent CHO cells without transfected receptors; assay type: cell-based, Chinese hamster
human α1A‐adrenoceptor [14] = target: T2, human α1A‐adrenoceptor; assay: ^3H‐prazosin whole‐cell radioligand binding, CHO‐α1A cells
[15] = system: parental CHO cell line without any transfected receptors; assay: ^3H‐cAMP accumulation, parent CHO cells without transfected receptors; assay type: cell-based, Chinese hamster
human α1B‐adrenoceptor [16] = target: T3, human α1B‐adrenoceptor; assay: Intracellular free calcium mobilization, CHO‐α1B cells; assay type: cell-based
[17] = target: T1, human α1D‐adrenoceptor (full length); assay: Intracellular free calcium mobilization, CHO‐α1D cells; assay type: cell-based

| SMILES | 3H‐prazosin binding Log KD [1] | Affinity selectivity ratio α1B vs α1D [1] [fold] | Log KD α1A, ^3H‐prazosin whole cell binding (human α1A‐adrenoceptor [2]) | ERK1/2‐phosphorylation % PDBu at 100 µM [4] [%] | Log KD α1D, ^3H‐prazosin whole cell binding (single site or first, higher affinity component) [6] | ERK1/2‐phosphorylation % PDBu (human α1A‐adrenoceptor [8]) [%] | ERK1/2‐phosphorylation Log EC50 (human α1A‐adrenoceptor [8]) | Log KD α1B, ^3H‐prazosin whole cell binding (human α1B‐adrenoceptor [10]) | Intracellular calcium release % ionomycin (human α1A‐adrenoceptor [11]) [%] | Intracellular calcium release Log EC50 (human α1A‐adrenoceptor [11]) | Log efficacy ratio KD /EC50 (human α1A‐adrenoceptor [11]) | Intracellular calcium release % ionomycin [12] | Affinity selectivity ratio α1A vs α1B (human α1A‐adrenoceptor [14]) [fold] | Affinity selectivity ratio α1A vs α1D (human α1A‐adrenoceptor [14]) [fold] | Intracellular calcium release % Ionomycin at 100 µM [17] [%] | other results |
| --- | --- | --- | --- | --- | --- | --- | --- | --- | --- | --- | --- | --- | --- | --- | --- | --- |
| CCC1(C2=NCCN2)Cc2ccccc2O1 (stereo not drawn) [Eforaxan] | −4.97 | 5.0 | −5.47 ± 0.03 | 2.7 ± 1.5 | −4.97 ± 0.06 | 76.4 ± 5.2 | −6.12 ± 0.07 | −4.27 ± 0.07 | 45.0 ± 2.6 | −6.83 ± 0.10 | 1.36 | No response | 15.8 | 3.2 | 2.8 ± 0.8 | ERK1/2-phosphorylation % PDBu [3]: No response; ERK1/2-phosphorylation Log EC50 [3]: No response; cAMP accumulation Log EC50 (human α1A‐adrenoceptor [5]; 5 h): −5.47 ± 0.10; cAMP accumulation % forskolin (human α1A‐adrenoceptor [5]; % of 10 µM forskolin response): 4.0 ± 0.6%; cAMP accumulation (in presence of forskolin) Log EC50 (human α1A‐adrenoceptor [7]; 10 μM forskolin): −5.93 ± 0.13; cAMP accumulation (in presence of forskolin) Fold increase (human α1A‐adrenoceptor [7]; fold increase of the forskolin response): 1.47 ± 0.13 fold; ERK1/2‐phosphorylation % PDBu at 100 µM (human α1B‐adrenoceptor [9]): 11.9 ± 2.4%; cAMP accumulation (in presence of forskolin) % forskolin-stim cAMP [13]: No response; cAMP accumulation (in presence of forskolin) Log EC50 [13]: No response; cAMP accumulation % forskolin [15]: No response; Intracellular calcium release % ionomycin (human α1B‐adrenoceptor [16]): No response; Intracellular calcium release Log EC50 (human α1B‐adrenoceptor [16]): No response |
| O=C1CCC(=O)N1C[C@H]1CC[C@H]2CN(c3ncccn3)CCN2C1 [Sunepitrion] | −5.33 | 4.8 | −5.78 ± 0.06 | 2.4 ± 1.1 | −5.33 ± 0.23 | 39.7 ± 8.4 | −5.96 ± 0.12 | −4.65 ± 0.06 | 30.1 ± 3.0 | −6.17 ± 0.14 | 0.39 | No response | 13.5 | 2.8 | 2.5 ± 0.5 | ERK1/2-phosphorylation % PDBu at 100μM [3]: 4.1 ± 2.7%; ERK1/2‐phosphorylation % PDBu (human α1B‐adrenoceptor [9]): 7.8 ± 2.8%; Intracellular calcium release % Ionomycin at 100 µM (human α1B‐adrenoceptor [16]): 8.2 ± 1.3% |
